Experimental data from patent US10227331B2 (priority 2015, dated 2019).

Tests used:
VIM-1 = VIM-1 (Pseudomonas aeruginosa (strain ATCC 15692 / DSM 22644 / CIP 104116 / JCM 14847 / LMG 12228 / 1C / PRS 101 / PAO1), UniProt A0A0F7KYQ8); assay: biochemical; settings: CCF2-FA substrate, 2 hours at 25° C
Procedure, shortened: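 Semi-log dose-response curves, fitted with a 4-parameter model, gave IC50s. The underlying signal was CCF2-FA fluorescence following 2 hours at 25° C with enzyme, substrate and inhibitor combined.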

[1] = tested on: P. aeruginosa expressing IMP-1, efflux+ (MB9798); type: cell-based, Pseudomonas aeruginosa; settings: for P. aeruginosa expressing IMP-1, efflux+ (MB9798) MITC95: imipenem at 2 μg/mL, in the presence of a class A, C, D serine β-lactamase inhibitor closely related to relebactam; for Efflux ratio: ratio MITC95 PA_9798/MITC95 PA_9799
Source text: (§1) The strain background is Pseudomonas aeruginosa PAO1.

[2] = tested on: Klebsiella pneumoniae expressing VIM-1 (IHMA599644); type: cell-based; settings: with imipenem 1 μg/ml; 95% inhibition of bacterial growth
Procedure, shortened: (§2)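 Restoration of imipenem susceptibility (1 μg/ml imipenem) was judged by absorbance after 22–24 h at 35° C. Test compound was added to bacteria suspended 1:100 in 1.1× CAMHB from overnight blood-agar cultures.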

[3] = tested on: Escherichia coli expressing NDM-1 (CLB30005, CLB30016); type: cell-based; settings: with imipenem 1 μg/ml; 95% inhibition of bacterial growth
Procedure, shortened: as §2

[4] = tested on: Serratia marcescens expressing IMP-1 (CL5741); type: cell-based; settings: with imipenem 1 μg/ml; 95% inhibition of bacterial growth
Procedure, shortened: as §2

[5] = tested on: P. aeruginosa expressing IMP-1, efflux− (MB9799); assay: Efflux: concentration of MBL inhibitor which restores susceptibility to imipenem; type: cell-based, Pseudomonas aeruginosa; settings: imipenem at 2 μg/mL, in the presence of a class A, C, D serine β-lactamase inhibitor closely related to relebactam
Source text: as §1

NDM-1 = NDM-1 (Klebsiella pneumoniae, UniProt C7C422); assay: biochemical; type: biochemical; settings: CCF2-FA substrate, 2 hours at 25° C; read-out: NDM-1 IC50
Method: (§3) Enzyme Activity: Determination of IC50
(§4) The Class B enzyme activities were measured in the presence of the test inhibitor in a fluorescence assay against a commercially available substrate consisting of a cephalosporin core linking 7-hydroxycoumarin to fluorescein (CCF2-FA). […] In a 384-well microplate, the test inhibitor was incubated with the metallo-β-lactamase enzyme and the substrate for 2 hours at 25° C. […] The IC50 value was determined from semi-logarithmic plots of enzyme inhibition versus inhibitor concentration, with a curve generated using a 4-parameter fit.

IMP-1 = IMP-1 (Serratia marcescens, UniProt P52699); assay: biochemical; type: biochemical; settings: CCF2-FA substrate, 2 hours at 25° C; read-out: IMP-1 IC50
Method: as §3, §4

Chain of NDM-1 (C7C422 whole entry, looked up, species assumed): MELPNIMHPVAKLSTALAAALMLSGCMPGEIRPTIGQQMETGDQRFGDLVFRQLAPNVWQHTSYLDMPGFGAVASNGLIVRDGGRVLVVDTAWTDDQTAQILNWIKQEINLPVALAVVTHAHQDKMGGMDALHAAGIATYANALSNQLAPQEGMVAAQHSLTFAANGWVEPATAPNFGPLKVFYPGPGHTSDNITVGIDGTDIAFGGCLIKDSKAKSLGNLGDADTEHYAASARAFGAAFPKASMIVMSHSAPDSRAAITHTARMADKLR
Chain of IMP-1 (P52699 whole entry, looked up, species assumed): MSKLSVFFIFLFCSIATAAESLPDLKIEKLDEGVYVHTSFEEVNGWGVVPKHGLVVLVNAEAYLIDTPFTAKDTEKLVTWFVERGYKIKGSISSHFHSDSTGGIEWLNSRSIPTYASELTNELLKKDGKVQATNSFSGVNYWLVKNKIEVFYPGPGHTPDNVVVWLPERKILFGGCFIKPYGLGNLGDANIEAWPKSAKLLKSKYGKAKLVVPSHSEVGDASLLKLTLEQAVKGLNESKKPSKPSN

| Structure (SMILES) | IC50 (VIM-1) | P. aeruginosa expressing IMP-1, efflux+ (MB9798) MITC95 [1] | Efflux ratio [1] | Klebsiella pneumoniae expressing VIM-1 (IHMA599644) MITC95 [2] | Escherichia coli expressing NDM-1 (CLB30016) MITC95 [3] | Serratia marcescens expressing IMP-1 (CL5741) MITC95 [4] | P. aeruginosa expressing IMP-1, efflux− (MB9799) MITC95 [5] | IC50 (NDM-1) | IC50 (IMP-1) |
| --- | --- | --- | --- | --- | --- | --- | --- | --- | --- |
| NS(=O)(=O)c1c(S(=O)(=O)C2CNC2)ccc(-c2cnc3cc[nH]c3c2)c1-c1nn[nH]n1 [Example 16, 6-(Azetidin-3-ylsulfonyl)-3-(1H-pyrrolo[3,2-b]pyridin-6-yl)-2-(2H-tetrazol-5-yl)benzenesulfonamide] | 0.653 nM | 6.25 µM | 4.00 | 3.125 µM | 0.3906 µM | 0.7813 µM | 1.563 µM | 0.49 nM | 2.37 nM |
| Nc1ccc2ncc(-c3ccc(S(=O)(=O)C4CNC4)c(S(N)(=O)=O)c3-c3nn[nH]n3)n2n1 [Example 17, 3-(6-Aminoimidazo[1,2-b]pyridazin-3-yl)-6-(azetidin-3-ylsulfonyl)-2-(2H-tetrazol-5-yl)benzenesulfonamide] | 0.707 nM | 3.125 µM | 2.00 | 6.25 µM | 3.125 µM | 3.125 µM | 1.563 µM | 0.207 nM | 0.959 nM |
| NCCS(=O)(=O)c1ccc(-c2cccc3c2nc(N)n3CC(F)(F)F)c(-c2nn[nH]n2)c1S(N)(=O)=O [Example 18, 3-(2-Amino-1-(2,2,2-trifluoroethyl)-1H-benzo[d]imidazol-4-yl)-6-((2-aminoethyl)sulfonyl)-2-(2H-tetrazol-5-yl)benzenesulfonamide] | 0.361 nM | 3.125 µM | 2.00 | 3.125 µM | 1.563 µM | 3.125 µM | 1.563 µM | 0.442 nM | 0.227 nM |
| Cn1c(N)nc2cccc(-c3ccc(S(=O)(=O)C4CNC4)c(S(N)(=O)=O)c3-c3nn[nH]n3)c21 [Example 19, 3-(2-Amino-1-methyl-1H-benzo[d]imidazol-7-yl)-6-(azetidin-3-ylsulfonyl)-2-(2H-tetrazol-5-yl)benzenesulfonamide] | 0.153 nM | 6.25 µM | 4.00 | 1.563 µM | 0.7813 µM | 1.563 µM | 1.563 µM | 0.108 nM | 2.5 nM |
| Nc1n[nH]c2cc(-c3ccc(S(=O)(=O)C4CNC4)c(S(N)(=O)=O)c3-c3nn[nH]n3)ccc12 [Example 20] | 0.168 nM | 3.125 µM | 2.00 | 3.125 µM | 3.125 µM | 1.563 µM | 1.563 µM | 0.291 nM | 1.19 nM |
| Nc1n[nH]c2c(-c3ccc(S(=O)(=O)C4CNC4)c(S(N)(=O)=O)c3-c3nn[nH]n3)cccc12 [Example 21, 3-(3-amino-1H-indazol-7-yl)-6-(azetidin-3-ylsulfonyl)-2-(2H-tetrazol-5-yl)benzenesulfonamide] | 0.45 nM | 1.563 µM | 1.00 | 3.125 µM | 1.563 µM | 3.125 µM | 1.563 µM | 0.15 nM | 0.639 nM |
| Cn1c(N)nc2c(-c3ccc(S(=O)(=O)C4CNC4)c(S(N)(=O)=O)c3-c3nn[nH]n3)cccc21 [Example 22, 3-(2-amino-1-methyl-1H-benzo[d]imidazol-4-yl)-6-(azetidin-3-ylsulfonyl)-2-(2H-tetrazol-5-yl)benzenesulfonamide] | 0.213 nM | 1.563 µM | 2.00 | 1.563 µM | 0.3906 µM | 0.7813 µM | 0.7813 µM | 0.164 nM | 0.432 nM |
| Cc1ccc(-c2ccc(S(=O)(=O)CCN)c(S(N)(=O)=O)c2-c2nn[nH]n2)c2nc(N)[nH]c12 [Example 23, 3-(2-amino-7-methyl-1H-benzo[d]imidazol-4-yl)-6-((2-aminoethyl)sulfonyl)-2-(2H-tetrazol-5-yl)benzenesulfonamide] | 0.0986 nM | 0.7813 µM | 2.00 | 0.7813 µM | 0.3906 µM | 0.7813 µM | 0.3906 µM | 0.123 nM | 0.352 nM |
| Nc1ccc(-c2ccc(S(=O)(=O)C3CCNCC3)c(S(N)(=O)=O)c2-c2nn[nH]n2)cn1 [Example 24, 3-(6-aminopyridin-3-yl)-6-(piperidin-4-ylsulfonyl)-2-(2H-tetrazol-5-yl)benzenesulfonamide] | 0.218 nM | 3.125 µM | 2.00 | 3.125 µM | 3.125 µM | 3.125 µM | 1.563 µM | 0.382 nM | 0.528 nM |
| Nc1ccc(-c2ccc(S(=O)(=O)C3CNC3)c(S(N)(=O)=O)c2-c2nn[nH]n2)cn1 [Example 25, 3-(6-aminopyridin-3-yl)-6-(azetidin-3-ylsulfonyl)-2-(2H-tetrazol-5-yl)benzenesulfonamide] | 0.441 nM | 2.302 µM | 2.18 | 2.135 µM | 0.5156 µM | 0.6719 µM | 1.058 µM | 0.532 nM | 0.862 nM |
| Nc1nc2cccc(-c3ccc(S(=O)(=O)C4CNC4)c(S(N)(=O)=O)c3-c3nn[nH]n3)c2s1 [Example 26, 3-(2-aminobenzo[d]thiazol-7-yl)-6-(azetidin-3-ylsulfonyl)-2-(2H-tetrazol-5-yl)benzenesulfonamide] | 0.16 nM | 3.125 µM | 2.00 | 3.125 µM | 1.563 µM | 3.125 µM | 1.563 µM | 0.0286 nM | 0.66 nM |
